{
  "source": "patent US7572770B2",
  "about": "“Use of an interleukin 1 receptor antagonist and/or pyrrolidinedithiocarbamate for the treatment or prophylaxis of type 2 diabetes” (University of Zurich, priority 2002, dated 2009)",
  "key": {"human islets": {"tested_on": "human islets", "experiment": "Insulin release and content of human islets", "format": "cell-based", "description": "Islet isolation and culture. Islets were isolated from pancreases of eleven organ donors at the Department of Surgery, University of Geneva Medical Center, as described (32-34). The islet purity was >95%, as judged by dithizone staining (if this degree of purity was not primarily achieved by routine isolation, islets were handpicked). […] For long-term in vitro studies, the islets were cultured on extracellular matrix-coated plates derived from bovine corneal endothelial cells (Novamed Ltd., Jerusalem, Israel), allowing the cells to attach to the dishes and spread, preserving their functional integrity (7;35). Islets were cultured in CMRL 1066 medium containing 100 U/ml penicillin, 100 μg/ml streptomycin and 10% fetal calf serum (Gibco, Gaithersburg, Md.), hereinafter referred to as culture medium. Two days after plating, when most islets were attached and began to flatten, the medium was changed to culture medium containing 5.5, 11.1 or 33.3 mM glucose. In some experiments, islets were additionally cultured with 2 ng/ml recombinant human IL-1β, 1000 U/ml recombinant human IFNγ (ReproTech EC Ltd, London, UK), 500 ng/ml IL-1β receptor antagonist (IL-1Ra) (R&D Systems Inc., Minneapolis, Minn.), 1 ng/ml membrane bound Fas-ligand (FasL) (36) (upstate biotechnology, Lake Placid, N.Y.) or with 100 μM pyrrolidinedithiocarbamate (PDTC; Sigma; 2 h per 2 d of culture).\nInsulin release and content. To determine acute insulin release in response to glucose stimulation, islets were washed in RPMI 1640 medium with 10% FCS and containing 3.3 mM glucose and pre-incubated for 1 h in the same medium. The medium was then discarded and replaced with fresh medium containing 3.3 mM glucose for 1 h for basal secretion, followed by an additional 1 h incubation in medium containing 16.7 mM glucose. Incubates were collected and frozen for insulin assays. […] Insulin was determined by a human insulin RIA kit (CIS bio international, Gif-Sur-Yvette, France)."}, "IL-1β": {"tested_on": "IL-1β", "experiment": "IL-1β release and expression in human islets exposed to leptin", "format": "cell-based", "description": "Islet isolation and cell culture. Islets were isolated from pancreases of ten organ donors at the Department of Surgery, University of Geneva Medical Center, as described (32-34). The islet purity was >95%, as judged by dithizone staining (if this degree of purity was not primarily achieved by routine isolation, islets were handpicked). […] For long-term in vitro studies, the islets were cultured on extracellular matrix-coated plates derived from bovine corneal endothelial cells (Novamed Ltd., Jerusalem, Israel), allowing the cells to attach to the dishes and spread, preserving their functional integrity (7;35). Islets were cultured in CMRL 1066 medium containing 100 U/ml penicillin, 100 μg/ml streptomycin and 10% fetal calf serum (Invitrogen Corporation, Paisley, U.K.), hereafter referred to as culture medium. Two days after plating, when most islets were attached and began to flatten, the medium was changed to culture medium containing 5.5, 11.1 or 33.3 mM glucose. In some experiments, islets were additionally cultured with 5, 10 or 500 nM rh leptin (PeproTech, London, UK), 500 ng/ml rh IL-1Ra (R&D Systems Inc., Minneapolis, Minn.) or 50 nM small interfering RNA (siRNA) as described below.\nDetection of IL-1Ra and IL-1β expressing cells. Pancreases from routine necropsies were immersion-fixed in formalin, followed by paraffin embedding. In parallel, isolated human were cultured in a suspension for 48 hours and exposed to 10 nM leptin or 33.3 mM glucose, islets were fixed in Bouin solution for 15 min, resuspended in 40 μl of 2% melted agarose in PBS (40° C.), followed by rapid centrifugation and paraffin embedding. Sections were deparaffinized, rehydrated and then incubated in methanol for 4 min. Human islets cultured on extracellular matrix for 4 days were washed in PBS, fixed in 4% paraformaldehyde (30 min, room temperature) followed by permeabilization with 0.5% triton X-100 (4 min, room temperature). Pancreas and islet sections and cultured cells were double-labeled for IL-1Ra or IL-1β and insulin, CD68, glucagon or somatostatin by 1 h of exposure to 10% bovine serum albumin followed by incubation (1 h, 37° C.) with biotinylated goat anti-IL-1Ra or mouse anti-IL-1β antibodies (R&D Systems Inc.). […]\nRNA extraction and RT-PCR. […] PCR conditions were: denaturation for 30 seconds at 94° C., annealing for 30 seconds at 60° C., and elongation for 30 seconds at 72° C., followed for real time PCR by quantification for 5 seconds at 82° C.; repetition for 40 cycles. […] For quantitative analysis, we used the LightCycler quantitative PCR system (Roche) and performed quantitative PCR with a commercial kit (LightCycler-DNA Master SYBR Green I; Roche). […]"}},
  "data": [
    {"substance": "Interleukin 1 receptor antagonist [IL-1Ra]", "values": [
      {"measurement": "acute glucose-stimulated insulin release, co-incubation", "setting": "human islets; 33.3 mM glucose or IL-1β for 4 days plus IL-1Ra or PDTC", "value": "partially restored such glucose stimulation"},
      {"measurement": "insulin content of islets", "setting": "human islets; high glucose with IL-1Ra, 4 days", "value": "remained unaffected"}
    ]},
    {"substance": "leptin: rh leptin (PeproTech); protein encoded by the ob gene", "values": [
      {"measurement": "IL-1β expression in β-cells (triple immunostaining)", "setting": "IL-1β; 10 nM leptin, 48 hours", "value": "induced IL-1β expression in TUNEL-positive β-cells"},
      {"measurement": "IL-1β RNA expression of islets (quantitative RT-PCR)", "setting": "IL-1β; leptin", "value": "not significantly changed"},
      {"measurement": "IL-1β release into culture medium", "setting": "IL-1β; leptin, 15 hours", "value": "increased IL-1β release"},
      {"measurement": "IL-1β release into culture medium", "setting": "IL-1β; leptin, 48 hours", "value": "remained increased"}
    ]}
  ]
}
